Source: patent publication US6670347B2, “19-nor-17α-pregna-1,3,5(10)-trien-17β-ols with a 21,16α-lactone ring” (Schering AG, priority 2000, dated 2003)

How the values were obtained:
[1] = molecular target: T1, estrogen receptor preparations of rat uteri (rat uterus cytosol; ERα predominates) (Rattus norvegicus, UniProt P06211); experiment: Estrogen receptor binding, rat uterus cytosol (competition with 3H-estradiol); conditions: relative binding affinity, RBA of reference substance estradiol = 100
T1 construct: The preparation of rat uterus cytosol, and the receptor test with the ER containing cytosol; from tissue; host or cells: rat uterus cytosol
T1 sequence (P06211 1-600): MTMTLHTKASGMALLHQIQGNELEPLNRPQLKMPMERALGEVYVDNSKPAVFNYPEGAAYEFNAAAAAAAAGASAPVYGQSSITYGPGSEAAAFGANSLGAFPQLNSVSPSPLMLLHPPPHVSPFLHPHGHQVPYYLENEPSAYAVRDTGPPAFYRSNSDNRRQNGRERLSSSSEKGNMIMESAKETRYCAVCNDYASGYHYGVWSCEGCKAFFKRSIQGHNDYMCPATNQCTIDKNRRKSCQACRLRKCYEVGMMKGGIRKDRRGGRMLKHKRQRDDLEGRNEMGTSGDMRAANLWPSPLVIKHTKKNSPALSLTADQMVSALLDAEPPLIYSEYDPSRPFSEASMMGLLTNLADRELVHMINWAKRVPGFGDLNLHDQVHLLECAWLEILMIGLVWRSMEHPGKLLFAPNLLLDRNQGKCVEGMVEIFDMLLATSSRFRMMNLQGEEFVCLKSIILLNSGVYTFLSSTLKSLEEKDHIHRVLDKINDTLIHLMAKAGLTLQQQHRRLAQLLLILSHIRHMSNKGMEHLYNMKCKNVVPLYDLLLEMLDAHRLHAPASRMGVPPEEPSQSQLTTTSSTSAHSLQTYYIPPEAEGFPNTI
Experimental: (§1) This patent application describes novel structures for selective estrogens, which have in vitro dissociation with respect to binding to estrogen receptor preparations of the rat uterus and rat prostate. In this case, it is assumed that ERα predominates in the rat uteri over ERβ, while ERβ predominates in the rat prostates over ERα.
(§2) The binding affinity of the new selective estrogens was tested in competitive tests with use of 3H-estradiol as a ligand in estrogen receptor preparations of rat prostates and rat uteri. The preparation of the prostate cytosol and the estrogen receptor test was performed with the prostate cytosol, as described by Testas et al. (1981) (Testsas, J. et al., 1981, Endocrinology 109:1287-1289).
The preparation of rat uterus cytosol, and the receptor test with the ER containing cytosol were performed basically as by Stack and Gorski, 1985 (Stack, Gorski 1985, Endocrinology 117, 2024-2032) with some modifications as described in Fuhrmann et al. (1995) (Fuhrmann U. et al. 1995, Contraception 51:45-52).

[2] = system: ovariectomized rats; experiment: Uterus growth test on ovariectomized rats (3-day treatment); assay type: in vivo, rat; parameters: unit not given beside the values; conditions: subcutaneously daily over 3 days
Experimental: An in-depth description of the experiment was published (K. H., Fritzemeir, Ch. Hegele-Hartung (1999), Handbook of Pharmacol., Oettel, Schillinger eds., 135/II, 21:1-94). Ovariectomized rats were treated 10 days after ovariectomy with various dosages of the test substance or reference substance. The treatment was carried out subcutaneously daily over 3 days. On day 4, the animals were sacrificed, and the uterus moist and dry weights were determined.

[3] = system: estrogen receptor preparations of rat prostates (rat prostate cytosol; ERβ predominates); experiment: Estrogen receptor binding, rat prostate cytosol (competition with 3H-estradiol); conditions: relative binding affinity, RBA of reference substance estradiol = 100
Experimental: as §1, §2

C[C@]12CC[C@@H]3c4ccc(O)cc4CC[C@H]3[C@@H]1C[C@H]1OC(=O)C[C@]12O [3,17β-Dihydroxy-19-nor-17α-pregna-1,3,5(10)-triene-21,16α-lactone]
Rat Uterus Cytosol (RBA*) [1]: 12.5
Uterus Moist Weight [Mw ± SD] ([2]; dosage 0.1 μg/kg): 23.7 ± 2.2
Uterus Moist Weight [Mw ± SD] ([2]; dosage 1 μg/kg): 60.1 ± 7.4
Uterus Moist Weight [Mw ± SD] ([2]; dosage 10 μg/kg): 95.9 ± 12.4
Rat Prostate Cytosol (RBA*) [3]: <0.1

C[C@]12CC[C@@H]3c4ccc(O)cc4CC[C@H]3[C@@H]1CC[C@@H]2O [17β-Estradiol, reference compound]
Uterus Moist Weight [Mw ± SD] ([2]; dosage 0.1 μg/kg): 28.0 ± 2.0
Uterus Moist Weight [Mw ± SD] ([2]; dosage 1 μg/kg): 71.9 ± 9.6
Uterus Moist Weight [Mw ± SD] ([2]; dosage 10 μg/kg): 82.3 ± 11.3
